Experimental data as given in patent publication US11752126B2, “Stable cannabinoid compositions” (Sino-German M&A Service GmbH, priority 2017, dated 2023).

Experiment: THC content over time in different stabilizing systems (FIG. 1)
Format: physicochemical
Source text: In the lower data set, the initial concentration of THC is reduced to 91% at day 93 with respect to the initial concentration of THC at day 0.

Structure (SMILES): CCCCCc1cc(O)c2c(c1)OC(C)(C)[C@@H]1CCC(C)=C[C@@H]21 [THC, tetrahydrocannabinol]
- evolution of the relative concentration of tetrahydrocannabinol (THC) (system including 1 weight percent tocopherol, over time): nearly flat over time
- relative concentration of tetrahydrocannabinol (THC) (system including no tocopherol, day 93, with respect to the initial concentration of THC at day 0): 91%
